{
  "source": "patent US20230399332A1",
  "about": "“IMIDAZO[1,2-a]PYRAZINE OR PYRAZOLO[1,5-a]PYRIMIDINE DERIVATIVE AND USE THEREOF” (TENCENT TECHNOLOGY (SHENZHEN) COMPANY LIMITED, priority 2022, published 2023)",
  "key": {"LSD1": {"molecular_target": "LSD1 (Homo sapiens (Human), UniProt O60341)", "assay": "LSD1 inhibitory activity on an enzyme level, AlphaScreen method", "format": "biochemical", "settings": "in vitro", "experimental": "This experiment was carried out to test the in vitro inhibitory activity of the compounds of the present disclosure against LSD1.\nExperimental steps and a method: In this experiment, the in vitro inhibitory activity of the compounds of the present disclosure against LSD1 on an enzyme level was tested by using an AlphaScreen method. The experimental steps are described as follows: • a) preparation of a 1× buffer: • preparing a 1× buffer (improved trihydroxymethylaminomethane buffer); • b) continuous dilution of the compounds: • transferring the compounds of the present disclosure to a porous plate by using Echo at a final DMSO concentration of 1%; • c) preparation of an enzyme solution: • preparing an enzyme solution in the 1× buffer; • d) preparation of a substrate solution: • adding polypeptide to the 1× buffer to prepare a substrate solution; • e) transferring 5 μL of the enzyme solution or the 1× buffer to the porous plate; • f) conducting incubation at room temperature for 15 min; • g) adding 5 μL of the substrate solution to each well to induce a reaction; • h) conducting incubation at room temperature for 40 min; • i) preparing a 1× Alphalisa buffer; • j) preparation of a 1× Alphalisa buffer solution of receptors and donors: • adding 15 μL of a receptor and donor solution in dark light environment, and conducting incubation at room temperature for 60 min; • k) reading an endpoint in an EnSpire Alpha mode; and • l) data processing: • calculating an inhibitory value according to an equation 1:\nInh %=(Max−Signal)/(Max−Min)*100; and equation 1: • calculating an IC50 value by using XL-Fit according to an equation 2:\nY=Bottom+(Top-Bottom)/(1+(IC50/X)[…]), equation 2: • where Y indicates the inhibitory rate, and X indicates the concentration of a compound."}, "hERG": {"molecular_target": "hERG (Homo sapiens (Human), UniProt Q12809)", "sequence (Q12809 whole entry)": "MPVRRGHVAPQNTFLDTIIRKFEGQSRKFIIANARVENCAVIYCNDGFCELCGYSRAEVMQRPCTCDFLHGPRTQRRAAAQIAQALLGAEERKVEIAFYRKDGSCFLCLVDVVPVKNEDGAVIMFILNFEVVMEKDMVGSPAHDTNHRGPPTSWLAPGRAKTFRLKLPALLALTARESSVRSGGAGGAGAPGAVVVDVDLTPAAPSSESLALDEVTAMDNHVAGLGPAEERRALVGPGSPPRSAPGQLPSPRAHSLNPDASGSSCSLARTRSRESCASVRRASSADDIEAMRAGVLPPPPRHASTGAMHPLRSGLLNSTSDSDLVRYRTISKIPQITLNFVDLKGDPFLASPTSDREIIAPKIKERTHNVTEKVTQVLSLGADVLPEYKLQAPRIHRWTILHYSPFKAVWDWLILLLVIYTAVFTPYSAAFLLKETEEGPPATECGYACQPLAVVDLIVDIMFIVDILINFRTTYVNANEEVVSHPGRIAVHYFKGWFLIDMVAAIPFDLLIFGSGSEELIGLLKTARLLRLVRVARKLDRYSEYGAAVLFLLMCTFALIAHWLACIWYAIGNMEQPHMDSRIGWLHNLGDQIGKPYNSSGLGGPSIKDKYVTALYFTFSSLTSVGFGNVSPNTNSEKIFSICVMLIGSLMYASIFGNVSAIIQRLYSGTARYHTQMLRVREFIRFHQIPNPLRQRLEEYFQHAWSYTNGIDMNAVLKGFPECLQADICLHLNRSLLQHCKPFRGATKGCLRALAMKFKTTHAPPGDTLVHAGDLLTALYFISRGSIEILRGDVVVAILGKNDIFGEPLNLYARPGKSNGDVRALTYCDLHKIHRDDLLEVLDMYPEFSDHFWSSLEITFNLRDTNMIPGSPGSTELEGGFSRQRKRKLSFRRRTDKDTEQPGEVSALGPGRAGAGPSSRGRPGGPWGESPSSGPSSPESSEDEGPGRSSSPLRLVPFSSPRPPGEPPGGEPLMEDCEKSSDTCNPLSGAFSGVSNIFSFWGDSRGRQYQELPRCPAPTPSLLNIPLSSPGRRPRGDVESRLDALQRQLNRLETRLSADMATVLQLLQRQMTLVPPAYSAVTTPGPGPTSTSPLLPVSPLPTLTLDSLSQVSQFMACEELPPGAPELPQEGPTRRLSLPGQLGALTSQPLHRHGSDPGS", "assay": "hERG inhibitory activity, whole cell patch clamp in CHO hERG cells", "format": "cell-based", "settings": "for inhibition at 10 µM: human, CHO cells that express hERG, read-out: hERG inhibitory rate", "experimental": "This experiment was carried out to test the in vitro inhibitory activity of the compounds of the present disclosure against hERG.\nIn this method, whole cell recording was conducted by using a HEKA EPC 10 USB patch clamp amplifier (HEKA Elektronik, Germany). A cover slide with a large number of individual CHO hERG cells on the surface was removed and placed in a recording tank which was treated with continuous perfusion (about 1 ml/min) and loaded into an inverted microscope. Currents of hERG channels of the individual cells were recorded by using a standard whole cell recording method. A fixed voltage of −80 mV was applied to the cells by a voltage clamp. The hERG currents were activated by depolarization at +20 mV for 5 s, and then the currents were changed back at −50 mV for 5 s to remove a passivation effect and observe deactivated tail currents. Potassium ion tail currents observed in the hERG channels were stabilized by continuous perfusion in this step. Then, the cells were treated with a drug of the present disclosure until a stable state was reached. A stable state was considered as being reached when three consecutive superimposed currents were recorded. At this time point, the cells were treated again with an extracellular solvent until the current amplitude was changed back to near the level before administration. Cisapride was used in a control experiment to verify that the mass and response of hERG cells were in a normal state."}, "[1]": {"assay": "Pharmacokinetics after intravenous injection or oral administration in mice", "format": "in vivo", "settings": "mouse, plasma, CD-1 mice, 5 mg/kg; for AUC(0-t): read-out: Curve area AUC0-t; for half-life: read-out: Half-life T1/2 (converted)", "experimental": "This experiment was carried out to test pharmacokinetic properties of the compounds of the present disclosure in mice.\nA tested compound was dissolved in a mixture of 10% DMSO, 10% Solutol HS15 and 80% normal saline, and subjected to vortex treatment and ultrasonic treatment to obtain a corresponding concentration of a clarified solution. Then, the clarified solution was filtered with a microporous filter membrane for later use. A resulting tested compound solution was injected intravenously to CD-1 mice with a body weight of 21 to 27 g at a dose of 5 mg/kg. A tested compound was dissolved in a mixture of 10% DMSO, 10% Solutol HS15 and 80% normal saline, and subjected to vortex treatment and ultrasonic treatment to obtain a corresponding concentration of a clarified solution. Then, the clarified solution was filtered with a microporous filter membrane for later use. A resulting tested compound solution was administered orally to CD-1 mice with a body weight of 21 to 27 g at a dose of 5 mg/kg. Whole blood was collected at certain time points, and plasma was prepared. Drug concentration was analyzed by an LC-MS/MS method, and pharmacokinetic parameters were calculated by Phoenix WinNonlin software."}},
  "note": "pIC50: −log10 of the molar value. Where two headings read alike, the source gives them in different places.",
  "data": [
    {"smiles": "CC(C)(O)Cn1nnc2cc(-c3c(-c4ccc(C#N)c(F)c4)nc4c(N5CCC[C@@H](N)C5)nccn34)c(F)cc21", "note": "[Compound 12, (R)-4-(8-(3-aminopiperidin-1-yl)-3-(6-fluoro-1-(2-hydroxy-2-methylpropyl)-1H-benzo[d][1,2,3]triazol-5-yl)imidazo[1,2-a]pyrazin-2-yl)-2-fluorobenzonitrile]", "values": [
      {"measurement": "pIC50", "setting": "LSD1", "result": 8.80},
      {"measurement": "inhibition at 10 µM", "setting": "hERG", "result": 27, "unit": "%"}
    ]},
    {"smiles": "CC(C)(O)Cn1nnc2cc(-c3c(-c4ccc(C#N)c(F)c4)nc4c(N5[C@@H]6CC[C@H]5[C@@H](N)C6)nccn34)c(F)cc21", "note": "[Compound 27, 4-(8-((1S,2S,4R)-2-amino-7-azabicyclo[2.2.1]heptane-7-yl)-3-(6-fluoro-1-(2-hydroxy-2-methylpropyl)-1H-benzo[d][1,2,3]triazol-5-yl)imidazo[1,2-a]pyrazin-2-yl)-2-fluorobenzonitrile]", "values": [
      {"measurement": "Vd", "setting": "[1]; intravenous injection, read-out: Apparent volume of distribution V", "result": 5.04, "unit": "L/kg"},
      {"measurement": "clearance", "setting": "[1]; intravenous injection, read-out: Clearance rate CL", "result": 7.25, "unit": "mL/min/kg"},
      {"measurement": "AUC(0-t)", "setting": "[1]; intravenous injection", "result": 11500, "unit": "ng·h/mL"},
      {"measurement": "half-life", "setting": "[1]; intravenous injection", "result": 8.33, "unit": "h"},
      {"measurement": "Cmax", "setting": "[1]; oral administration, read-out: Blood drug concentration Cmax", "result": 648, "unit": "ng/mL"},
      {"measurement": "AUC(0-t)", "setting": "[1]; oral administration", "result": 6530, "unit": "ng·h/mL"},
      {"measurement": "half-life", "setting": "[1]; oral administration", "result": 5.86, "unit": "h"},
      {"measurement": "pIC50", "setting": "LSD1", "result": 9.00}
    ]},
    {"smiles": "CC(C)(O)Cn1nnc2cc(-c3c(-c4ccc(C#N)c(F)c4)nc4c(N5CCC[C@@H](N)C5)nccn34)ccc21", "note": "[Compound 20, (R)-4-(8-(3-aminopiperidin-1-yl)-3-(1-(2-hydroxy-2-methylpropyl)-1H-benzo[d][1,2,3]triazol-5-yl)imidazo[1,2-a]pyrazin-2-yl)-2-fluorobenzonitrile]", "values": [
      {"measurement": "pIC50", "setting": "LSD1", "result": 8.59},
      {"measurement": "inhibition at 10 µM", "setting": "hERG", "result": 26.7, "unit": "%"}
    ]},
    {"smiles": "CC(C)(O)Cn1nnc2cc(-c3c(-c4ccc(C#N)c(F)c4)nc4c(N5CCC[C@@H](N)C5)nccn34)c(F)cc21", "note": "[Compound 18, (R)-4-(8-(3-aminopiperidin-1-yl)-3-(6-fluoro-1-(2-hydroxy-2-methylpropyl)-1H-benzo[d][1,2,3]triazol-5-yl)imidazo[1,2-a]pyrazin-2-yl)-2-fluorobenzonitrile]", "values": [
      {"measurement": "hERG inhibitory rate", "setting": "hERG; 10 μM", "result": 43.72, "unit": "%"}
    ]}
  ]
}
